Measurements as given in patent US6048523A, “Polyester cyclic compounds, their complexes and bonded bodies” (priority 1996, dated 2000).

Columns and labels:
[1] = system: lactic acid bacteria in the bowel; test: number of lactic acid bacteria in the bowel of rats after oral administration; format: in vivo, rat; settings: oral 4 mg/kg/day, 4 weeks; upper limit of the measurement 20
Description: After the administration, content of the bowel of each rat was taken, diluted to a predetermined magnification and inoculated on an MRS agar medium to measure the number of lactic acid bacteria in the bowel.

[2] = system: Yoshida sarcoma cells; test: suppression of Yoshida sarcoma cells in culture; format: cell-based; settings: Rattus norvegicus, 72 h, 3 days, read-out: suppression rate to control
Method: A concentration of each compound or complex in the culture solution was adjusted to 1 mg/ml, 0.5 mg/ml, 0.25 mg/ml or 0.125 mg/ml. After the sarcoma cells were cultivated for 3 days, the number of the cells was measured.

[3] = system: macrophages; test: migration ability of macrophages (glass capillary method) after oral administration; format: in vivo, SD rat; settings: oral 4 mg/kg/day, 4 weeks; migration area after 24 hours; ratio to control group
Method: After the administration, liquid paraffin was administered into peritoneal cavity of each rat. Three days later, peritoneal exudate cells were taken. Migration ability of macrophages produced from the peritoneal exudate cells was tested by glass capillary method. After 24 hours, a migration area of the macrophage was measured and a ratio of the measured migration area to that of control group was calculated.

[4] = system: Yoshida sarcomas; test: Yoshida sarcoma transplanted into rat, oral administration; format: in vivo, Donryu-rat; settings: 8 mg/kg/day, 2 weeks
Method: Yoshida sarcomas were transplanted into a Donryu-rat of an age of 5 weeks. […] After the administration, sizes of the sarcomas were measured.

[5] = system: lactic acid bacteria; test: multiplication of lactic acid bacteria in MRS medium; format: cell-based; settings: 0.25 mg/10 ml MRS medium, 48 hours; read-out: Multiplication rates to control
Method: Pre-cultivated lactic acid bacteria were seeded into each MRS medium in a predetermined amount. After 48 hours, it was diluted to a predetermined magnification and inoculated on an MRS agar medium to measure the number of the bacteria.

CC1OC(=O)C(C)OC1=O (stereo not drawn) [formula (4), lactide]
Ratio to control (number of lactic acid bacteria in the bowel) [1]: 3.8
inhibition at 125 µg/mL ([2]; 0.125 mg/ml): -18.2%
inhibition at 250 µg/mL ([2]; 0.25 mg/ml): 0%
inhibition at 500 µg/mL ([2]; 0.5 mg/ml): 0%
inhibition at 1000 µg/mL ([2]; 1 mg/ml): 40.9%
Ratio of the migration area [3]: 1.13
Size of sarcoma ([4]; average values): 3216.6 mm^3
Suppression rate ([4]; versus control): 57.9%
activity at 25 µg/mL [5]: 116%
